Test results: ChEMBL document CHEMBL6115000, “Discovery of a first-in-class PROTAC degrader of histone lysine demethylase KDM4” (Eur J Med Chem, 2025)

Key:
[1] = target: T1, von Hippel-Lindau disease tumor suppressor/Lysine-specific demethylase 4A (Homo sapiens, UniProt O75164+P40337); experiment: PROTAC activity at VHL/KDM4A in human KYSE-150 cells assessed as induction of KDM4A degradation at 0.1 uM incubated for 12 hrs by Western blot analysis relative to control; format: cell-based; settings: KYSE-150 cell line
T1 sequence (O75164 2-1064 limits assumed): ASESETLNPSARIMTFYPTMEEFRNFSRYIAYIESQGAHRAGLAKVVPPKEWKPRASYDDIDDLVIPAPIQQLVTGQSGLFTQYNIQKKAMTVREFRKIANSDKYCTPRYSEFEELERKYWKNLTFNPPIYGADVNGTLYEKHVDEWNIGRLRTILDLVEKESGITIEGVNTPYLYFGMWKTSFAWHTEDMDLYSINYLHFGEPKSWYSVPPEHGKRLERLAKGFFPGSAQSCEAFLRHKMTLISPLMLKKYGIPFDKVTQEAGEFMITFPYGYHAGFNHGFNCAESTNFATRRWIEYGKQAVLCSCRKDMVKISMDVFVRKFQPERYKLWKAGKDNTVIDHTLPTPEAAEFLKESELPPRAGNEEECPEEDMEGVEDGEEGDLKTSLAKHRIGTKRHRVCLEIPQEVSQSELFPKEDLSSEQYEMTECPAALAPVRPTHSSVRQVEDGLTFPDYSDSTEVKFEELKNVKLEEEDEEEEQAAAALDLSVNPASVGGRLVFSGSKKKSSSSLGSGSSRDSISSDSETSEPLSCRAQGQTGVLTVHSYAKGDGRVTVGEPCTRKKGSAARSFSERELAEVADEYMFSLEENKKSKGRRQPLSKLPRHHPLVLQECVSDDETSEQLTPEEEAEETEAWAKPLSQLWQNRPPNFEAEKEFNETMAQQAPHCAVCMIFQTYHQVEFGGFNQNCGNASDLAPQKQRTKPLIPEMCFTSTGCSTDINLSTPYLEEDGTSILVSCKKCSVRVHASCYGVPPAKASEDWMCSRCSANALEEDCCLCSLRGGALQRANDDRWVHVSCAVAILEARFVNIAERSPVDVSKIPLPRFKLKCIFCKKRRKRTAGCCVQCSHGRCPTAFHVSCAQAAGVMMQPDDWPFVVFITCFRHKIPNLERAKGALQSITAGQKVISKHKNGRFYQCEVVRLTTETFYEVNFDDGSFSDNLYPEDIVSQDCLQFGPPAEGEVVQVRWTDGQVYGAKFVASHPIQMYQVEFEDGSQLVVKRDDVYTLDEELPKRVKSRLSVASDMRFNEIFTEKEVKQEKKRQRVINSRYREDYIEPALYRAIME
T1 sequence (P40337 whole entry partner): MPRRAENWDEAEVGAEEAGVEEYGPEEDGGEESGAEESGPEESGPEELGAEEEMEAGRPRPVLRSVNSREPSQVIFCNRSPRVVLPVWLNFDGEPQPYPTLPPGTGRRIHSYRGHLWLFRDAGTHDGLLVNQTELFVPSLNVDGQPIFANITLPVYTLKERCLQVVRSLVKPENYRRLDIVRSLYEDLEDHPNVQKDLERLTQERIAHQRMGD

[2] = target: T1, von Hippel-Lindau disease tumor suppressor/Lysine-specific demethylase 4A; experiment: PROTAC activity at VHL/KDM4A in human KYSE-150 cells assessed as induction of KDM4A degradation at 1 uM incubated for 12 hrs by Western blot analysis relative to control; format: cell-based; settings: KYSE-150 cell line

An Activity [1] of 15.9% and an Activity [2] of 14.1% were found for `Cc1ncsc1-c1ccc([C@H](C)NC(=O)[C@@H]2C[C@@H](O)CN2C(=O)[C@@H](NC(=O)CCCCCOc2ccc(N(C)c3ccc4c(c3)OCC[C@H]4CNc3cnccc3C(=O)O)cc2)C(C)(C)C)cc1` in this work.

An Activity [1] of 30.5% and an Activity [2] of 43.9% were found for `Cc1ncsc1-c1ccc([C@H](C)NC(=O)[C@@H]2C[C@@H](O)CN2C(=O)[C@@H](NC(=O)c2ccc(CCCCOc3ccc(N(C)c4ccc5c(c4)OCC[C@H]5CNc4cnccc4C(=O)O)cc3)cc2)C(C)(C)C)cc1` in this work.

An Activity [1] of 52.4% and an Activity [2] of 54.5% were found for `Cc1ncsc1-c1ccc([C@H](C)NC(=O)[C@@H]2C[C@@H](O)CN2C(=O)[C@@H](NC(=O)c2ccc(CCCCCCOc3ccc(N(C)c4ccc5c(c4)OCC[C@H]5CNc4cnccc4C(=O)O)cc3)cc2)C(C)(C)C)cc1` in this work.

An Activity [1] of 6.5% and an Activity [2] of 15.5% were found for `Cc1ncsc1-c1ccc([C@H](C)NC(=O)[C@@H]2C[C@@H](O)CN2C(=O)[C@@H](NC(=O)CCOCCOCCOc2ccc(N(C)c3ccc4c(c3)OCC[C@H]4CNc3cnccc3C(=O)O)cc2)C(C)(C)C)cc1` in this work.

An Activity [1] of -2.5% and an Activity [2] of 15.5% were found for `Cc1ncsc1-c1ccc([C@H](C)NC(=O)[C@@H]2C[C@@H](O)CN2C(=O)[C@@H](NC(=O)CCOCCOCCOCCOc2ccc(N(C)c3ccc4c(c3)OCC[C@H]4CNc3cnccc3C(=O)O)cc2)C(C)(C)C)cc1` in this work.

An Activity [1] of -0.2% and an Activity [2] of 41.1% were found for `Cc1ncsc1-c1ccc([C@H](C)NC(=O)[C@@H]2C[C@@H](O)CN2C(=O)[C@@H](NC(=O)CCCCCCCOc2cccc(N(C)c3ccc4c(c3)OCC[C@H]4CNc3cnccc3C(=O)O)c2)C(C)(C)C)cc1` in this work.

An Activity [1] of 34.6% and an Activity [2] of 53.9% were found for `Cc1ncsc1-c1ccc([C@H](C)NC(=O)[C@@H]2C[C@@H](O)CN2C(=O)[C@@H](NC(=O)CCCCCCCCOc2ccc(N(C)c3ccc4c(c3)OCC[C@H]4CNc3cnccc3C(=O)O)cc2)C(C)(C)C)cc1` in this work.

An Activity [1] of 37.1% and an Activity [2] of 57.2% were found for `Cc1ncsc1-c1ccc([C@H](C)NC(=O)[C@@H]2C[C@@H](O)CN2C(=O)[C@@H](NC(=O)CCCCCCCOc2ccc(N(C)c3ccc4c(c3)OCC[C@H]4CNc3cnccc3C(=O)O)cc2)C(C)(C)C)cc1` in this work.

An Activity [1] of 48.5% and an Activity [2] of 57.9% were found for `Cc1ncsc1-c1ccc([C@H](C)NC(=O)[C@@H]2C[C@@H](O)CN2C(=O)[C@@H](NC(=O)CCCCCCOc2ccc(N(C)c3ccc4c(c3)OCC[C@H]4CNc3cnccc3C(=O)O)cc2)C(C)(C)C)cc1` in this work.

An Activity [1] of 47.1% and an Activity [2] of 58.5% were found for `Cc1ncsc1-c1ccc([C@H](C)NC(=O)[C@@H]2C[C@@H](O)CN2C(=O)[C@@H](NC(=O)CCCCCCCCCCCOc2ccc(N(C)c3ccc4c(c3)OCC[C@H]4CNc3cnccc3C(=O)O)cc2)C(C)(C)C)cc1` in this work.

An Activity [1] of 19.5% and an Activity [2] of 12% were found for `Cc1ncsc1-c1ccc([C@H](C)NC(=O)[C@@H]2C[C@@H](O)CN2C(=O)[C@@H](NC(=O)C2CCN(C(=O)CCCCCOc3ccc(N(C)c4ccc5c(c4)OCC[C@H]5CNc4cnccc4C(=O)O)cc3)CC2)C(C)(C)C)cc1` in this work.

An Activity [1] of 36.7% and an Activity [2] of 58.6% were found for `Cc1ncsc1-c1ccc([C@H](C)NC(=O)[C@@H]2C[C@@H](O)CN2C(=O)[C@@H](NC(=O)CCCCCCCCCCOc2ccc(N(C)c3ccc4c(c3)OCC[C@H]4CNc3cnccc3C(=O)O)cc2)C(C)(C)C)cc1` in this work.

An Activity [1] of 42.7% and an Activity [2] of 63.1% were found for `Cc1ncsc1-c1ccc([C@H](C)NC(=O)[C@@H]2C[C@@H](O)CN2C(=O)[C@@H](NC(=O)c2ccc(CCCCCOc3ccc(N(C)c4ccc5c(c4)OCC[C@H]5CNc4cnccc4C(=O)O)cc3)cc2)C(C)(C)C)cc1` in this work.

An Activity [1] of 38.7% and an Activity [2] of 47.3% were found for `Cc1ncsc1-c1ccc([C@H](C)NC(=O)[C@@H]2C[C@@H](O)CN2C(=O)[C@@H](NC(=O)c2ccc(C#CCCCCOc3ccc(N(C)c4ccc5c(c4)OCC[C@H]5CNc4cnccc4C(=O)O)cc3)cc2)C(C)(C)C)cc1` in this work.
